Reference: patent US5129937A, “Pyridyloxypyrimidine derivatives, preparation process thereof, and herbicidal compositions containing the same as active ingredients” (Mitsui Toatsu Chemicals Incorporated, priority 1989, dated 1992)

Assays:
Format in all cases: in vivo
Soybean (Glycine max) = test: Upland Foliar Application Test, crop injury; details: 30 g ai/a; foliar application at 2-3 leaf stage, emulsion; observed on the 30th day
From the text: (§1) Resin-made 1/10000-are pots were filled with the soil of an upland field. Redroot pigweed, morningglory (Ipomoea pupurea), common lambsquarters, foxtail meadow, johnsongrass, barnyardgrass, green foxtail, large crabgrass, soybean, corn and cotton were separately seeded and were allowed to germinate in a green house. When each plant grew to the stage of 2-3 leaves, an emulsion formulated from a predetermined amount of each test compound in a similar manner to the method described in Formulation Example 11 was diluted with water and then sprayed at a predetermined application rate by means of a pressure-operated ULV (ultra low volume) sprayer. The application rate was controlled at 5 l per are. Influence to the crops and weeds were observed on the 30th day after the spray of the herbicides. The results are shown in Table 4 in which the degree of damages of each test plant and the degree of injury to each crop are shown in a similar manner to Test 2.

Corn (Zea maize) = test: Upland Foliar Application Test, crop injury; details: 30 g ai/a; foliar application at 2-3 leaf stage, emulsion; observed on the 30th day
From the text: as §1

[1] = tested on: Cotton (Gossypium indicum); test: Upland Foliar Application Test, crop injury; details: 30 g ai/a; foliar application at 2-3 leaf stage, emulsion; observed on the 30th day
From the text: as §1

Redroot Pigweed = test: Upland Foliar Application Test; details: 30 g ai/a; foliar application at 2-3 leaf stage, emulsion; observed on the 30th day
From the text: as §1

[2] = tested on: Foxtail (Setaria viridis); test: Upland Foliar Application Test; details: 30 g ai/a; foliar application at 2-3 leaf stage, emulsion; observed on the 30th day
From the text: as §1

Johnsongrass = test: Upland Foliar Application Test; details: 30 g ai/a; foliar application at 2-3 leaf stage, emulsion; observed on the 30th day
From the text: as §1

[3] = tested on: Crabgrass (Digitaria adsendens); test: Upland Foliar Application Test; details: 30 g ai/a; foliar application at 2-3 leaf stage, emulsion; observed on the 30th day
From the text: as §1

Foxtail meadow = test: Upland Foliar Application Test; details: 30 g ai/a; foliar application at 2-3 leaf stage, emulsion; observed on the 30th day
From the text: as §1

[4] = tested on: Barnyardgrass (Echinochloa crus-galli); test: Upland Foliar Application Test; details: 30 g ai/a; foliar application at 2-3 leaf stage, emulsion; observed on the 30th day
From the text: as §1

Common lambsquarters = test: Upland Foliar Application Test; details: 30 g ai/a; foliar application at 2-3 leaf stage, emulsion; observed on the 30th day
From the text: as §1

[5] = tested on: Bulrush (Scirpus juncoides); test: Submerged Soil Treatment Test (Growth Stage Treatment); details: 30 g ai/a, growth stage treatment (barnyardgrass two-leaf stage), granule, observed 30 days later
Description: (§2) 1/5000-are Wagner pots were filled with soil. Seeds or tubers of barnyardgrass, bulrush and Sagittaria pygmaea were seeded or planted under submerged condition. Two pairs of rice seedlings (2-3 leaf stage), which had been reared in advance, were transplanted to each pot and were allowed to grow in a green house. Each pair consisted of two rice seedlings. When the barnyardgrass grew to the two-leaf stage, each pot was treated with a granule which had been prepared by processing a predetermined amount of the test composition in accordance with a similar method to the method described in Formulation Example 9. The state of emergence of weeds and the state of injury of rice were observed 30 days later. In the table, the degrees of damages of the test plants and the degrees of injury of the rice are shown in a similar manner to Example 2.

[6] = tested on: Barnyardgrass (Echinochloa crus-galli); test: as above; details: 30 g ai/a, growth stage treatment (barnyardgrass two-leaf stage), granule, observed 30 days later
Description: as §2

[7] = tested on: Arrowhead sp. (Sagittaria pygmaea); test: as above; details: 30 g ai/a, growth stage treatment (barnyardgrass two-leaf stage), granule, observed 30 days later
Description: as §2

For `COc1cc(OC)nc(Oc2cccnc2C(OC)OC(C)C)n1` (centres unmarked) [Compound No. 5, 3-(4.6-dimethoxy-2-pyrimidinyloxy)-2-pyridinecarboxaldehyde isopropylmethylacetal], the “Crop injury Soybean (Glycine max)” value (Soybean (Glycine max)) was 0 (91-100 (No damages)), the “Crop injury Corn (Zea maize)” value (Corn (Zea maize)) was 0 (91-100 (No damages)) and the “Crop injury Cotton (Gossypium indicum)” value [1] was 0 (91-100 (No damages)). The “Herbicidal effects Redroot Pigweed” value (Redroot Pigweed) was 5 (0-5 (Death)), the “Herbicidal effects Foxtail (Setaria viridis)” value [2] was 5 (0-5 (Death)) and the “Herbicidal effects Johnsongrass” value (Johnsongrass) was 5 (0-5 (Death)). For the same compound, the “Herbicidal effects Crabgrass (Digitaria adsendens)” value (“Herbicidal effects Crabgrass” below) [3] was 4 (6-10 (Severe damages)), the “Herbicidal effects Foxtail meadow” value (Foxtail meadow) was 5 (0-5 (Death)) and the “Herbicidal effects Barnyardgrass (Echinochloa crus-galli)” value (“Herbicidal effects Barnyardgrass” for short) [4] was 5 (0-5 (Death)). The “Herbicidal effects Common lambquarters” value (Common lambsquarters) was 4 (6-10 (Severe damages)), the “Herbicidal effects Bulrush (Scirpus juncoides)” value (“Herbicidal effects Bulrush” for short) [5] was 5 (0-5 (Death)) and the “Herbicidal effects Barnyardgrass” value [6] was 5 (0-5 (Death)). The “Herbicidal effects Arrowhead sp. (Sagittaria pygmaea)” value [7] was 5 (0-5 (Death)).

In the case of `COc1cc(OC)nc(Oc2cccnc2C2OCCO2)n1` [Compound No. 6], the “Crop injury Soybean (Glycine max)” value (Soybean (Glycine max)) was 0 (91-100 (No damages)), the “Crop injury Corn (Zea maize)” value (Corn (Zea maize)) was 0 (91-100 (No damages)) and the “Crop injury Cotton (Gossypium indicum)” value [1] was 0 (91-100 (No damages)). The “Herbicidal effects Redroot Pigweed” value (Redroot Pigweed) was 5 (0-5 (Death)), the “Herbicidal effects Foxtail (Setaria viridis)” value [2] was 4 (6-10 (Severe damages)) and the “Herbicidal effects Johnsongrass” value (Johnsongrass) was 5 (0-5 (Death)). For the same compound, the “Herbicidal effects Crabgrass” value [3] was 4 (6-10 (Severe damages)), the “Herbicidal effects Foxtail meadow” value (Foxtail meadow) was 5 (0-5 (Death)) and the “Herbicidal effects Barnyardgrass” value [4] was 4 (6-10 (Severe damages)). For the same compound, the “Herbicidal effects Common lambquarters” value (Common lambsquarters) was 4 (6-10 (Severe damages)), the “Herbicidal effects Bulrush” value [5] was 5 (0-5 (Death)) and the “Herbicidal effects Barnyardgrass” value [6] was 5 (0-5 (Death)). For the same compound, the “Herbicidal effects Arrowhead sp. (Sagittaria pygmaea)” value [7] was 3 (11-40 (Medium damages)).

`CCOC(=O)c1ncccc1Oc1nc(OC)cc(OC)n1` [A, reference compound] was tested, and the “Crop injury Soybean (Glycine max)” value (Soybean (Glycine max)) was 5 (0-5 (Death)), the “Crop injury Corn (Zea maize)” value (Corn (Zea maize)) was 5 (0-5 (Death)) and the “Crop injury Cotton (Gossypium indicum)” value [1] was 5 (0-5 (Death)). For the same compound, the “Herbicidal effects Redroot Pigweed” value (Redroot Pigweed) was 4 (6-10 (Severe damages)), the “Herbicidal effects Foxtail (Setaria viridis)” value [2] was 5 (0-5 (Death)) and the “Herbicidal effects Johnsongrass” value (Johnsongrass) was 5 (0-5 (Death)). The “Herbicidal effects Crabgrass” value [3] was 4 (6-10 (Severe damages)), the “Herbicidal effects Foxtail meadow” value (Foxtail meadow) was 5 (0-5 (Death)) and the “Herbicidal effects Barnyardgrass” value [4] was 5 (0-5 (Death)). The “Herbicidal effects Common lambquarters” value (Common lambsquarters) was 4 (6-10 (Severe damages)), the “Herbicidal effects Bulrush” value [5] was 4 (6-10 (Severe damages)) and the “Herbicidal effects Barnyardgrass” value [6] was 5 (0-5 (Death)). For the same compound, the “Herbicidal effects Arrowhead sp. (Sagittaria pygmaea)” value [7] was 4 (6-10 (Severe damages)).

In the case of `COc1cc(OC)nc(Oc2cccnc2C=O)n1` [Compound No. 1, 4,6-dimethoxy-2-(2-formyl-3-pyridyloxy)pyrimidine], the “Crop injury Soybean (Glycine max)” value (Soybean (Glycine max)) was 1 (71-90 (Slight damages)), the “Crop injury Corn (Zea maize)” value (Corn (Zea maize)) was 0 (91-100 (No damages)) and the “Crop injury Cotton (Gossypium indicum)” value [1] was 0 (91-100 (No damages)). The “Herbicidal effects Redroot Pigweed” value (Redroot Pigweed) was 5 (0-5 (Death)), the “Herbicidal effects Foxtail (Setaria viridis)” value [2] was 5 (0-5 (Death)) and the “Herbicidal effects Johnsongrass” value (Johnsongrass) was 5 (0-5 (Death)). The “Herbicidal effects Crabgrass” value [3] was 4 (6-10 (Severe damages)), the “Herbicidal effects Foxtail meadow” value (Foxtail meadow) was 5 (0-5 (Death)) and the “Herbicidal effects Barnyardgrass” value [4] was 5 (0-5 (Death)). The “Herbicidal effects Common lambquarters” value (Common lambsquarters) was 5 (0-5 (Death)), the “Herbicidal effects Bulrush” value [5] was 5 (0-5 (Death)) and the “Herbicidal effects Barnyardgrass” value [6] was 5 (0-5 (Death)). For the same compound, the “Herbicidal effects Arrowhead sp. (Sagittaria pygmaea)” value [7] was 4 (6-10 (Severe damages)).

With `COc1cc(OC)nc(Oc2cccnc2C2OCC(C)O2)n1` (centres unmarked) [Compound No. 7] the “Crop injury Soybean (Glycine max)” value (Soybean (Glycine max)) was 0 (91-100 (No damages)), the “Crop injury Corn (Zea maize)” value (Corn (Zea maize)) was 0 (91-100 (No damages)) and the “Crop injury Cotton (Gossypium indicum)” value [1] was 0 (91-100 (No damages)). The “Herbicidal effects Redroot Pigweed” value (Redroot Pigweed) was 5 (0-5 (Death)), the “Herbicidal effects Foxtail (Setaria viridis)” value [2] was 5 (0-5 (Death)) and the “Herbicidal effects Johnsongrass” value (Johnsongrass) was 5 (0-5 (Death)). The “Herbicidal effects Crabgrass” value [3] was 4 (6-10 (Severe damages)), the “Herbicidal effects Foxtail meadow” value (Foxtail meadow) was 5 (0-5 (Death)) and the “Herbicidal effects Barnyardgrass” value [4] was 5 (0-5 (Death)). For the same compound, the “Herbicidal effects Common lambquarters” value (Common lambsquarters) was 4 (6-10 (Severe damages)), the “Herbicidal effects Bulrush” value [5] was 4 (6-10 (Severe damages)) and the “Herbicidal effects Barnyardgrass” value [6] was 5 (0-5 (Death)). The “Herbicidal effects Arrowhead sp. (Sagittaria pygmaea)” value [7] was 4 (6-10 (Severe damages)).

For `COc1cc(OC)nc(Oc2cccnc2C2OCCCO2)n1` [Compound No. 8], the “Crop injury Soybean (Glycine max)” value (Soybean (Glycine max)) was 0 (91-100 (No damages)), the “Crop injury Corn (Zea maize)” value (Corn (Zea maize)) was 0 (91-100 (No damages)) and the “Crop injury Cotton (Gossypium indicum)” value [1] was 0 (91-100 (No damages)). For the same compound, the “Herbicidal effects Redroot Pigweed” value (Redroot Pigweed) was 4 (6-10 (Severe damages)), the “Herbicidal effects Foxtail (Setaria viridis)” value [2] was 4 (6-10 (Severe damages)) and the “Herbicidal effects Johnsongrass” value (Johnsongrass) was 5 (0-5 (Death)). The “Herbicidal effects Crabgrass” value [3] was 3 (11-40 (Medium damages)), the “Herbicidal effects Foxtail meadow” value (Foxtail meadow) was 4 (6-10 (Severe damages)) and the “Herbicidal effects Barnyardgrass” value [4] was 4 (6-10 (Severe damages)). The “Herbicidal effects Common lambquarters” value (Common lambsquarters) was 4 (6-10 (Severe damages)), the “Herbicidal effects Bulrush” value [5] was 2 (41-70 (Small damages)) and the “Herbicidal effects Barnyardgrass” value [6] was 4 (6-10 (Severe damages)). The “Herbicidal effects Arrowhead sp. (Sagittaria pygmaea)” value [7] was 2 (41-70 (Small damages)).

`COc1cc(OC)nc(Oc2ccccc2C=O)n1` [B, reference compound] was tested, and the “Crop injury Soybean (Glycine max)” value (Soybean (Glycine max)) was 5 (0-5 (Death)), the “Crop injury Corn (Zea maize)” value (Corn (Zea maize)) was 5 (0-5 (Death)) and the “Crop injury Cotton (Gossypium indicum)” value [1] was 5 (0-5 (Death)). The “Herbicidal effects Redroot Pigweed” value (Redroot Pigweed) was 3 (11-40 (Medium damages)), the “Herbicidal effects Foxtail (Setaria viridis)” value [2] was 4 (6-10 (Severe damages)) and the “Herbicidal effects Johnsongrass” value (Johnsongrass) was 4 (6-10 (Severe damages)). For the same compound, the “Herbicidal effects Crabgrass” value [3] was 4 (6-10 (Severe damages)), the “Herbicidal effects Foxtail meadow” value (Foxtail meadow) was 4 (6-10 (Severe damages)) and the “Herbicidal effects Barnyardgrass” value [4] was 4 (6-10 (Severe damages)). The “Herbicidal effects Common lambquarters” value (Common lambsquarters) was 3 (11-40 (Medium damages)), the “Herbicidal effects Bulrush” value [5] was 5 (0-5 (Death)) and the “Herbicidal effects Barnyardgrass” value [6] was 5 (0-5 (Death)). The “Herbicidal effects Arrowhead sp. (Sagittaria pygmaea)” value [7] was 4 (6-10 (Severe damages)).

In the case of `CCOC(OCC)c1ncccc1Oc1nc(OC)cc(OC)n1` [Compound No. 3, 3-(4,6-dimethoxy-2-pyrimidinyloxy)-2-pyridinecarboxaldehyde diethylacetal], the “Crop injury Soybean (Glycine max)” value (Soybean (Glycine max)) was 0 (91-100 (No damages)), the “Crop injury Corn (Zea maize)” value (Corn (Zea maize)) was 0 (91-100 (No damages)) and the “Crop injury Cotton (Gossypium indicum)” value [1] was 0 (91-100 (No damages)). For the same compound, the “Herbicidal effects Redroot Pigweed” value (Redroot Pigweed) was 5 (0-5 (Death)), the “Herbicidal effects Foxtail (Setaria viridis)” value [2] was 5 (0-5 (Death)) and the “Herbicidal effects Johnsongrass” value (Johnsongrass) was 5 (0-5 (Death)). The “Herbicidal effects Crabgrass” value [3] was 5 (0-5 (Death)), the “Herbicidal effects Foxtail meadow” value (Foxtail meadow) was 5 (0-5 (Death)) and the “Herbicidal effects Barnyardgrass” value [4] was 5 (0-5 (Death)). For the same compound, the “Herbicidal effects Common lambquarters” value (Common lambsquarters) was 5 (0-5 (Death)), the “Herbicidal effects Bulrush” value [5] was 5 (0-5 (Death)) and the “Herbicidal effects Barnyardgrass” value [6] was 5 (0-5 (Death)). For the same compound, the “Herbicidal effects Arrowhead sp. (Sagittaria pygmaea)” value [7] was 5 (0-5 (Death)).
